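Each compound was tested at five concentrations against cells in 96-well plates for 48 hours. GI50 is the concentration that inhibits growth by half.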 Activity calls are given as the source filed them. Cut-off read from the data, not from the text of the source: active = GI50 up to about 1.1 µM and inactive = higher.
Assays:
Assay in all cases: NCI-60 cell line screen, 48 h
XF498 = tested on: XF498
SF-539 = tested on: SF-539
OVCAR-8 = tested on: OVCAR-8
SK-MEL-5 = tested on: SK-MEL-5
CCRF-CEM = tested on: CCRF-CEM
SR = tested on: SR
OVCAR-4 = tested on: OVCAR-4
LOX IMVI = tested on: LOX IMVI
NCI/ADR-RES = tested on: NCI/ADR-RES
MOLT-4 = tested on: MOLT-4
786-0 = tested on: 786-0
HCT-15 = tested on: HCT-15
COLO 205 = tested on: COLO 205
MDA-MB-435 = tested on: MDA-MB-435
NCI-H226 = tested on: NCI-H226
SW-620 = tested on: SW-620
UACC-257 = tested on: UACC-257
DU-145 = tested on: DU-145
OVCAR-5 = tested on: OVCAR-5
HL-60 = tested on: HL-60

Row | SMILES | GI50 (XF498) | GI50 (SF-539) | GI50 (OVCAR-8) | GI50 (SK-MEL-5) | GI50 (CCRF-CEM) | GI50 (SR) | GI50 (OVCAR-4) | GI50 (LOX IMVI) | GI50 (NCI/ADR-RES) | GI50 (MOLT-4) | GI50 (786-0) | GI50 (HCT-15) [µM] | GI50 (COLO 205) | GI50 (MDA-MB-435) | GI50 (NCI-H226) | GI50 (SW-620) | GI50 (UACC-257) | GI50 (DU-145) | GI50 (OVCAR-5) | GI50 (HL-60)
1 | CC(C)C1=Cc2ccc3c(c2C(=O)C1=O)CCCC3 | 2.15 µM (inactive) | 8.07 µM (inactive) | 5.64 µM (inactive) | 7.1 µM (inactive) | 0.65 µM (active) | 0.515 µM (active) | 1.51 µM (inactive) | 10.4 µM (inactive) | 21.4 µM (inactive) | 0.78 µM (active) | 2.43 µM (inactive) | 3.08 | 11.4 µM (inactive) | 0.865 µM (active) | 15 µM (inactive) | 3.3 µM (inactive) | 3.47 µM (inactive) | 17.9 µM (inactive) | 13.9 µM (inactive) | 1.01 µM (active)
2 | O=S(=O)(O)c1cc(/N=N/c2cc(S(=O)(=O)O)c3cccnc3c2O)ccc1/C=C/c1ccc(/N=N/c2cc(S(=O)(=O)O)c3cccnc3c2O)cc1S(=O)(=O)O | > 100 µM (inactive) | > 100 µM (inactive) | > 100 µM (inactive) | > 100 µM (inactive) | 18.3 µM (inactive) | 21.7 µM (inactive) | > 100 µM (inactive) | > 94.8 µM (inactive) | > 100 µM (inactive) | 20.4 µM (inactive) | > 100 µM (inactive) | > 100 | > 100 µM (inactive) | > 100 µM (inactive) | > 100 µM (inactive) | > 100 µM (inactive) | > 100 µM (inactive) | > 100 µM (inactive) | > 100 µM (inactive) | 18.6 µM (inactive)
3 | CN1CCN(C)C12C=c1ccccc1=CC21CC1 | 23.9 µM (inactive) | 37.9 µM (inactive) | 53.5 µM (inactive) | 23.2 µM (inactive) | 24.2 µM (inactive) | 25.3 µM (inactive) | 71.3 µM (inactive) | 34.6 µM (inactive) | > 68.2 µM (inactive) | 21.6 µM (inactive) | 54 µM (inactive) | 32.8 | 15.7 µM (inactive) | 22.1 µM (inactive) | > 100 µM (inactive) | 22.2 µM (inactive) | 23.7 µM (inactive) | > 100 µM (inactive) | > 100 µM (inactive) | 3.02 µM (inactive)
